Assay results as given in patent US20240208986A1, “PHENYL AZEPINES AS RIPK1 INHIBITORS AND METHODS OF USE THEREOF” (Merck Sharp & Dohme LLC, priority 2021, published 2024).

Target: RIPK1 (recombinant GST-RIPK1 kinase domain, residues 1-327) (Homo sapiens (Human), UniProt Q13546)
Experiment: RIPK1-ADP-Glo Enzymatic Assay
Assay type: biochemical
Conditions: 25 nM GST-RIPK1, 300 μM ATP, 3 μM dephosphorylated-MBP; 30 minutes pre-incubation, 150 minutes reaction; ten-point titration
Protocol: The enzymatic activity of RIPK1 is measured using an assay derived from ADP-Glo kit (™Promega), which provides a luminescent-based ADP detection system. Specifically, the ADP generated by RIPK1 kinase is proportionally detected as luminescent signals in a homogenous fashion. In this context, the assessment of the inhibitory effect of small molecules (EC50) is measured by the effectiveness of the compounds to inhibit the ATP to ADP conversion by RIPK1.
In this assay, the potency (EC50) of each compound was determined from a ten-point (1:3 serial dilution; top compound concentration of 100000 nM) titration curve using the following outlined procedure. To each well of a white ProxiPlus 384 well-plate, 30 nL of compound (1% DMSO in final assay volume of 3 μL) was dispensed, followed by the addition of 2 μL of 1× assay buffer (25 mM Hepes 7.3, 20 mM MgCl2, 50 mM NaCl, 1 mM DTT, 0.005% Tween20, and 0.02% BSA) containing 37.5 nM of GST-RIPK1 (recombinant GST-RIPK1 kinase domain (residues 1-327) enzyme produced from baculovirus-transfected Sf21 cells: MW=62 kDa). Plates were placed in an ambient temperature humidified chamber for a 30 minutes pre-incubation with compound. Subsequently, each reaction was initiated by the addition of 1 μL 1× assay buffer containing 900 μM ATP and 3 μM dephosphorylated-MBP substrate. The final reaction in each well of 3 μL consists of 25 nM of GST-RIPK1, 300 μM ATP, and 3 μM dephosphorylated-MBP. Kinase reactions were allowed to proceed for 150 minutes prior to adding ADP-Glo reagents per Promega's outlined kit protocol. Dose-response curves were generated by plotting percent effect (% product conversion; Y-axis) vs. Log10 compound concentrations (X-axis). EC50 values were calculated using a non-linear regression, four-parameters sigmoidal dose-response model.

Chain of RIPK1 (recombinant GST-RIPK1 kinase domain, residues 1-327) (Q13546 1-327): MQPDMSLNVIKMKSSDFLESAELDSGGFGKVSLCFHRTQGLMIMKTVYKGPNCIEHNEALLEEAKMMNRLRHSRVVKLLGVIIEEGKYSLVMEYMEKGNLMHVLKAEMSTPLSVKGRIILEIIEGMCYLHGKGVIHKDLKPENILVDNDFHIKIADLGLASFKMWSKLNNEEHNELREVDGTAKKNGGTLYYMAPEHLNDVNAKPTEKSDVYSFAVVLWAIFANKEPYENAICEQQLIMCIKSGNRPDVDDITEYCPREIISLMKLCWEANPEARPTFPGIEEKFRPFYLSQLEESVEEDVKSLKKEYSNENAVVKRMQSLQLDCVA

IC50	SMILES
512 nM	O=C(N1C[C@@H]2C[C@H]1c1ccccc1O2)C12CC(C(F)F)(C1)C2 [Compound 1-60, [3-(difluoromethyl)bicyclo [1.1.1]pentan-1-yl][(2S,5S)-2,3-dihydro-2,5-methano-1,4-benzoxazepin-4(5H)-yl]methanone]
61 nM	CC(C)(C(=O)N1C[C@@H]2C[C@H]1c1cc(Cl)ccc1O2)C(F)F [Compound 2-1, 1-[(2S,5S)-7-chloro-2,3-dihydro-2,5-methano-1,4-benzoxazepin-4(5H)-yl]-3,3-difluoro-2,2-dimethylpropan-1-one]
158 nM	CC(C)(C(=O)N1C[C@@H]2C[C@H]1c1cc(C#N)ccc1O2)C(F)F [Compound 2-2, (2S,5S)-4-(3,3-difluoro-2,2-dimethylpropanoyl)-2,3,4,5-tetrahydro-2,5-methano-1,4-benzoxazepine-7-carbonitrile]
143 nM	Cc1ccc2c(c1)[C@@H]1C[C@@H](CN1C(=O)C(C)(C)C(F)F)O2 [Compound 2-3, 3,3-difluoro-2,2-dimethyl-1-[(2S,5S)-7-methyl-2,3-dihydro-2,5-methano-1,4-benzoxazepin-4(5H)-yl]propan-1-one]
60 nM	CC(C)(C)C(=O)N1C[C@@H]2C[C@H]1c1cc(F)cc(F)c1O2 [Compound 2-4, 1-[(2S,5S)-7,9-difluoro-2,3-dihydro-2,5-methano-1,4-benzoxazepin-4(5H)-yl]-2,2-dimethylpropan-1-one]
34 nM	CC(C)(C)C(=O)N1C[C@@H]2C[C@H]1c1cc(F)ccc1O2 [Compound 2-5, 1-[(2S,5S)-7-fluoro-2,3-dihydro-2,5-methano-1,4-benzoxazepin-4(5H)-yl]-2,2-dimethylpropan-1-one]
43 nM	CC(C)(C)C(=O)N1C[C@@H]2C[C@H]1c1cccc(F)c1O2 [Compound 2-6, 1-[(2S,5S)-9-fluoro-2,3-dihydro-2,5-methano-1,4-benzoxazepin-4(5H)-yl]-2,2-dimethylpropan-1-one]
25 nM	CC(C)(C(=O)N1C[C@@H]2C[C@H]1c1cc(F)ccc1O2)C(F)F [Compound 2-7, 3,3-difluoro-1-[(2S,5S)-7-fluoro-2,3-dihydro-2,5-methano-1,4-benzoxazepin-4(5H)-yl]-2,2-dimethylpropan-1-one]
20 nM	CC(C)(C(=O)N1C[C@@H]2C[C@H]1c1cccc(F)c1O2)C(F)F [Compound 2-8, 3,3-difluoro-1-[(2S,5S)-9-fluoro-2,3-dihydro-2,5-methano-1,4-benzoxazepin-4(5H)-yl]-2,2-dimethylpropan-1-one]
63 nM	CC1(C(=O)N2C[C@@H]3C[C@H]2c2cc(F)ccc2O3)CCC1 [Compound 2-9, [(2S,5S)-7-fluoro-2,3-dihydro-2,5-methano-1,4-benzoxazepin-4(5H)-yl](1-methylcyclobutyl)methanone]
30 nM	CC1(C(=O)N2C[C@@H]3C[C@H]2c2cccc(F)c2O3)CCC1 [Compound 2-10, [(2S,5S)-9-fluoro-2,3-dihydro-2,5-methano-1,4-benzoxazepin-4(5H)-yl](1-methylcyclobutyl)methanone]
26 nM	CC(C)(C(=O)N1C[C@@H]2C[C@H]1c1cc(F)cc(C#N)c1O2)C(F)F [Compound 2-11, (2S,5S)-4-(3,3-difluoro-2,2-dimethylpropanoyl)-7-fluoro-2,3,4,5-tetrahydro-2,5-methano-1,4-benzoxazepine-9-carbonitrile]
20 nM	CC(F)(F)C(C)(C)C(=O)N1C[C@@H]2C[C@H]1c1cccc(F)c1O2 [Compound 2-12, 3,3-difluoro-1-[(2S,5S)-9-fluoro-2,3-dihydro-2,5-methano-1,4-benzoxazepin-4(5H)-yl]-2,2-dimethylbutan-1-one]
23 nM	CC(F)(F)C(C)(C)C(=O)N1C[C@@H]2C[C@H]1c1cc(F)ccc1O2 [Compound 2-13, 3,3-difluoro-1-[(2S,5S)-7-fluoro-2,3-dihydro-2,5-methano-1,4-benzoxazepin-4(5H)-yl]-2,2-dimethylbutan-1-one]
15 nM	O=C(N1C[C@@H]2C[C@H]1c1cc(F)ccc1O2)C12CCC(CC1)C2 [Compound 2-14, (bicyclo[2.2.1]heptan-1-yl)[(2S,5S)-7-fluoro-2,3-dihydro-2,5-methano-1,4-benzoxazepin-4(5H)-yl]methanone]
24 nM	O=C(N1C[C@@H]2C[C@H]1c1cccc(F)c1O2)C12CCC(CC1)C2 [Compound 2-15, (bicyclo[2.2.1]heptan-1-yl)[(2S,5S)-9-fluoro-2,3-dihydro-2,5-methano-1,4-benzoxazepin-4(5H)-yl]methanone]

IC50	SMILES
35 nM	CC(F)(F)C(C)(C)C(=O)N1C[C@@H]2C[C@H]1c1ccc(Cl)cc1O2 [Compound 2-16, 1-((2S,5S)-8-chloro-2,3-dihydro-2,5-methanobenzo[f][1,4]oxaze-pin-4(5H)-yl)-3,3-difluoro-2,2-dimethylbutan-1-one]
18 nM	CC(C)(C(=O)N1C[C@@H]2C[C@H]1c1cccc(C#N)c1O2)C(F)F [Compound 2-19, (2S,5S)-4-(3,3-difluoro-2,2-dimethylpropanoyl)-2,3,4,5-tetrahydro-2,5-methano-1,4-benzoxazepine-9-carbonitrile]
52 nM	CC(C)(C(=O)N1C[C@@H]2C[C@H]1c1cccc(Cl)c1O2)C(F)F [Compound 2-20, 1-[(2S,5S)-9-chloro-2,3-dihydro-2,5-methano-1,4-benzoxazepin-4(5H)-yl]-3,3-difluoro-2,2-dimethylpropan-1-one]
37 nM	CC(C)(C(=O)N1C[C@@H]2C[C@H]1c1ccc(Cl)cc1O2)C(F)F [Compound 2-21, 1-[(2S,5S)-8-chloro-2,3-dihydro-2,5-methano-1,4-benzoxazepin-4(5H)-yl]-3,3-difluoro-2,2-dimethylpropan-1-one]
388 nM	CC(C)(C(=O)N1C[C@@H]2C[C@H]1c1ccc(C#N)cc1O2)C(F)F [Compound 2-22, (2S,5S)-4-(3,3-difluoro-2,2-dimethylpropanoyl)-2,3,4,5-tetrahydro-2,5-methano-1,4-benzoxazepine-8-carbonitrile]
49 nM	CC(C)(CC#N)C(=O)N1C[C@@H]2C[C@H]1c1ccc(Cl)cc1O2 [Compound 2-23, 4-((2S,5S)-8-chloro-2,3-dihydro-2,5-methanobenzo[f][1,4]oxaze-pin-4(5H)-yl)-3,3-dimethyl-4-oxobutanenitrile]
30 nM	CC(C)(C(=O)N1C[C@@H]2C[C@H]1c1cc(F)cc(Cl)c1O2)C(F)F [Compound 2-24, 1-[(2S,5S)-9-chloro-7-fluoro-2,3-dihydro-2,5-methano-1,4-benzoxazepin-4(5H)-yl]-3,3-difluoro-2,2-dimethylpropan-1-one]
10 nM	N#Cc1cc(F)cc2c1O[C@H]1C[C@@H]2N(C(=O)C23CCC(F)(CC2)C3)C1 [Compound 2-25, (2S,5S)-7-fluoro-4-(4-fluorobicyclo[2.2.1]heptane-1-carbonyl)-2,3,4,5-tetrahydro-2,5-methano-1,4-benzoxazepine-9-carbonitrile]
12 nM	CC(C)(C(=O)N1C[C@@H]2C[C@H]1c1cc(F)cc(F)c1O2)C(F)F [Compound 2-26, 1-[(2S,5S)-7,9-difluoro-2,3-dihydro-2,5-methano-1,4-benzoxazepin-4(5H)-yl]-3,3-difluoro-2,2-dimethylpropan-1-one]
16 nM	CC(C)(CC#N)C(=O)N1C[C@@H]2C[C@H]1c1cc(F)cc(F)c1O2 [Compound 2-27, 4-[(2S,5S)-7,9-difluoro-2,3-dihydro-2,5-methano-1,4-benzoxazepin-4(5H)-yl]-3,3-dimethyl-4-oxobutanenitrile]
809 nM	N#CCC1(C(=O)N2C[C@@H]3C[C@H]2c2cccc(F)c2O3)CCC1 [Compound 2-28, {1-[(2S,5S)-9-fluoro-2,3-dihydro-2,5-methano-1,4-benzoxazepine-4(5H)-carbonyl]cyclobutyl} acetonitrile]
55 nM	CC1(C(=O)N2C[C@@H]3C[C@H]2c2cc(F)ccc2O3)CC(C#N)C1 (stereo partly drawn) [Compound 2-29, 3-((2S,5S)-7-fluoro-2,3,4,5-tetrahydro-2,5-methanobenzo[f][1,4]oxaze-pine-4-carbonyl)-3-methylcyclobutane-1-carbonitrile]
75 nM	CC1(C(=O)N2C[C@@H]3C[C@H]2c2cccc(F)c2O3)CC(C#N)C1 (stereo partly drawn) [Compound 2-30, 3-((2S,5S)-9-fluoro-2,3,4,5-tetrahydro-2,5-methanobenzo[f][1,4]oxaze-pine-4-carbonyl)-3-methylcyclobutane-1-carbonitrile]
132 nM	C[C@@H]1[C@@H]2C[C@@H](c3ccccc3O2)N1C(=O)C(C)(C)C [Compound 2-31, 2,2-dimethyl-1-((2S,3R,5S)-3-methyl-2,3-dihydro-2,5-methanobenzo[f][1,4]oxaze-pin-4(5H)-yl)propan-1-one]
39 nM	O=C(N1C[C@@H]2C[C@H]1c1cc(Cl)ccc1O2)C12CCC(F)(CC1)C2 [Compound 2-32, ((2S,5S)-7-chloro-2,3-dihydro-2,5-methanobenzo[f][1,4]oxaze-pin-4(5H)-yl)(4-fluorobicyclo[2.2.1]heptan-1-yl)methanone]
